Source: PubChem BioAssay (NCI)
Where “and” joins values, the source holds several entries; their conditions need not be identical. Identical values can stand only once.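 A five-concentration, 48-hour dose response in 96-well plates underlies each endpoint, interpolated linearly between surrounding concentrations. At the GI50, growth is halved. TGI is the concentration that stops growth completely.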

Key:
Experiment in all cases: NCI tumour cell line growth inhibition, 48 h
786-0 renal = tested on: 786-0 renal
BT-549 breast = tested on: BT-549 breast
COLO 205 colon = tested on: COLO 205 colon
DU-145 prostate = tested on: DU-145 prostate
HT29 colon = tested on: HT29 colon
IGROV1 ovarian = tested on: IGROV1 ovarian
MDA-MB-435 = tested on: MDA-MB-435
NCI/ADR-RES ovarian = tested on: NCI/ADR-RES ovarian
SK-MEL-28 melanoma = tested on: SK-MEL-28 melanoma
SR leukemia = tested on: SR leukemia

Structure (SMILES)	GI50 (786-0 renal)	TGI (786-0 renal)	GI50 (BT-549 breast)	TGI (BT-549 breast)	GI50 (COLO 205 colon)	TGI (COLO 205 colon)	GI50 (DU-145 prostate)	TGI (DU-145 prostate)	GI50 (HT29 colon)	TGI (HT29 colon)	GI50 (IGROV1 ovarian)	TGI (IGROV1 ovarian)	GI50 (MDA-MB-435)	TGI (MDA-MB-435)	GI50 (NCI/ADR-RES ovarian)	TGI (NCI/ADR-RES ovarian)	GI50 (SK-MEL-28 melanoma)	TGI (SK-MEL-28 melanoma)	GI50 (SR leukemia)	TGI (SR leukemia)
Cc1ccc(Cl)cc1Nc1nc(C(F)(F)F)ccc1C(=O)N/N=C/c1c(Cl)cccc1Cl	0.588 µM	1.38 µM	1.62 µM	7.09 µM	395 nM	1.72 µM	1.21 µM	> 100 µM	791 nM	> 100 µM	994 nM	> 68.9 µM	2150 nM	11.6 µM	522 nM	6.77 µM	1840 nM	32.1 µM	251 nM	3.88 µM
CC1(C)CC(=O)C2=C(C1)NC(SSC1=C(C#N)C(c3ccc(Br)cc3)C3=C(CC(C)(C)CC3=O)N1)=C(C#N)C2c1ccc(Br)cc1 (stereo not drawn)	53.8 µg/mL	> 100 µM and 150 µg/mL	28.1 µg/mL	> 100 µM and 52 µg/mL	> 150 µg/mL	> 100 µM and 150 µg/mL	> 150 µg/mL	> 100 µM and 150 µg/mL	> 150 µg/mL	> 100 µM and 150 µg/mL	> 150 µg/mL	> 100 µM and 150 µg/mL	90.8 µg/mL	> 100 µM and 150 µg/mL	28.9 µg/mL	> 100 µM and 64.1 µg/mL	48.4 µg/mL	> 100 µM and 131 µg/mL	22.8 µg/mL	> 100 µM and 66.2 µg/mL
CCCCCCCCCCCC1=NC(C)(C)CN1CCO	6.09 µM	19 µM	13.6 µM	34.3 µM	1850 nM	3.45 µM	10.2 µM	21.9 µM	2120 nM	5.05 µM	2570 nM	6.67 µM	2510 nM	6.98 µM	13900 nM	29.5 µM	2120 nM	4.35 µM	2380 nM	5.79 µM
COc1cc(C(=O)NC2CCN(C)CC2)ccc1Nc1ncc2c(n1)N(C1CCCC1)CC(F)(F)C(=O)N2C	0.0903 µM	6.87 µM	0.0989 µM	15.5 µM	< 10 nM	0.064 µM	< 0.01 µM	0.0621 µM	< 10 nM	11.1 µM		16.8 µM	< 10 nM	< 0.01 µM	964 nM	15.7 µM	29.3 nM	12.1 µM	< 10 nM	0.448 µM
Nc1ccccc1/C=N\Nc1ccccc1	2.69 µM	> 100 µM	74.1 µM	> 100 µM	25200 nM	> 100 µM	> 100 µM	> 100 µM	> 100000 nM	> 100 µM	> 100000 nM	> 100 µM	4500 nM	> 100 µM	5800 nM	> 100 µM	> 100000 nM	> 100 µM	26600 nM	> 100 µM
COc1ccccc1CNCCCN1C(=O)c2ccc3c4c(ccc(c24)C1=O)C(=O)N(CCCNCCCCNCCCCN)C3=O	2.25 µM	14.4 µM	9.17 µM	24.5 µM	351 nM	1.31 µM	1.62 µM	3.95 µM	1350 nM	> 28.2 µM	2800 nM	9.17 µM	1620 nM	3.37 µM	12800 nM	> 100 µM	2100 nM	5.9 µM	1500 nM	17.7 µM
CCCN(CCC)c1ccc(C=O)cc1	81 µM	> 100 µM	35.4 µM	> 100 µM	> 77600 nM	> 100 µM	46.7 µM	> 100 µM	52000 nM	> 100 µM	> 84400 nM	> 100 µM	39700 nM	> 100 µM	56300 nM	> 100 µM	> 100000 nM	> 100 µM	33700 nM	> 100 µM
O=C1Nc2cc(Cl)ccc2Oc2cc(Oc3ccccc3)ccc21	8.96 µM	42.2 µM	8.97 µM	51.1 µM	5300 nM	19.9 µM	6.52 µM	26.6 µM	3220 nM	18.3 µM	5420 nM	29.9 µM	761 nM	5.85 µM	2530 nM	9.77 µM	5940 nM	32.8 µM	2890 nM	29.5 µM
COc1ccc2nc3cccc([N+](=O)[O-])c3c(NCCN(CCO)CCO)c2c1	0.0268 µM	0.156 µM	0.0415 µM	0.14 µM	11.8 nM	0.031 µM	0.014 µM	0.717 µM	11.7 nM	0.043 µM	32.9 nM	0.242 µM	17.5 nM	0.0406 µM	689 nM	4.6 µM	44.4 nM	0.414 µM	17 nM	0.647 µM
O=C(CSc1nc2ccc([N+](=O)[O-])cc2[nH]1)Nc1cccc(Cl)c1	3.02 µM	14.1 µM	2.72 µM	10.8 µM	1920 nM	4.27 µM	3.68 µM	18.4 µM	2750 nM	10.7 µM	3100 nM	18.3 µM	2700 nM	12.2 µM	2410 nM	9.13 µM	2680 nM	13.1 µM	3340 nM	> 45.7 µM
CCOC(=O)c1ccc2c(c1)[n+](=O)c(C(=O)c1ccc3ccccc3c1)c(C(F)(F)F)n2[O-]	1.61 µM	2.99 µM	1.53 µM	3.28 µM	1520 nM	2.87 µM	1.78 µM	3.16 µM	1080 nM	2.27 µM	361 nM	1.21 µM	1530 nM	2.95 µM	1610 nM	3.31 µM	1660 nM	3.02 µM	331 nM	1.6 µM
NC(=O)c1nnn(Cc2cc(Cl)c(C(=O)c3ccc(Cl)cc3)c(Cl)c2)c1N	> 9.09 µM	> 9.09 µM and 43 µM		> 52.4 µM	> 9090 nM	> 9.09 µM and 48 µM		> 53.5 µM	> 9090 nM	> 9.09 µM and 42 µM	> 9090 nM	> 9.09 µM and 44.2 µM		> 40.7 µM		> 66.4 µM	> 9090 nM	> 9.09 µM and 44.6 µM	21700 nM	> 100 µM
CCCCCCCCCCCCOC1C(CNC(=O)C2OC3OC(C)(C)OC3C2NC(=O)CN2CCN(c3ccccn3)CC2)OC2OC(C)(C)OC21 (stereo not drawn)	1.79 µM	3.22 µM	1.83 µM	3.39 µM	2330 nM	5.01 µM	1.68 µM	3.04 µM	1750 nM	3.34 µM	1870 nM	3.45 µM	1690 nM	3.36 µM	2640 nM	7.39 µM	2530 nM	7.47 µM		1.86 µM
CSC(=S)N/N=C/c1ccccc1		> 100 µM		> 100 µM		> 100 µM		> 100 µM		> 100 µM		> 100 µM		> 100 µM		> 100 µM		> 100 µM		> 100 µM
C=C1C(=O)O[C@H]2[C@H]1CC/C(C=Nc1ccc(C(F)(F)F)cc1N)=C\CC[C@@]1(C)O[C@@H]21	5.86 µM	18.5 µM	7.04 µM	20.2 µM	4210 nM	16.3 µM	3.21 µM	13.1 µM	3650 nM	8.6 µM	3360 nM	18.4 µM	4740 nM	17.2 µM	8090 nM	45.2 µM	5850 nM	20.2 µM	2660 nM	10.7 µM
COC1OCC(OS(=O)(=O)c2ccc(C)cc2)C(OC(=O)c2ccccc2)C1OC(=O)c1ccccc1 (stereo not drawn)	5.13 µM	> 100 µM	> 100 µM	> 100 µM	4140 nM	> 100 µM	19.7 µM	> 100 µM	3960 nM	> 100 µM	6400 nM	> 100 µM	662 nM	3.94 µM	3640 nM	> 100 µM	4620 nM	> 100 µM	3070 nM	> 100 µM
CCc1ccc(CCC(=O)Nc2ncc(Cc3cc(Cl)ccc3Cl)s2)o1	2.7 µM	> 50 µM	> 50 µM	> 50 µM	1260 nM	11 µM	1.74 µM	> 50 µM	1170 nM	> 50 µM	1690 nM	> 50 µM	150 nM	0.486 µM	1600 nM	> 50 µM	2750 nM	> 50 µM	220 nM	7.92 µM
CC1(C)Cc2cccc(OCC(O)CN3CCN(c4ccc(F)cc4)CC3)c2O1 (stereo not drawn)	5.66 µM	15.7 µM	17.3 µM	39.8 µM	11100 nM	26.9 µM	24.1 µM	> 50 µM	7870 nM	17.2 µM	20000 nM	> 50 µM	10500 nM	25.7 µM	12200 nM	45.6 µM	19100 nM	> 50 µM	13400 nM	> 50 µM
CCOCCc1c(O)nc(SC)[nH]c1=O	> 100 µM	> 100 µM	> 100 µM	> 100 µM	> 100000 nM	> 100 µM	> 100 µM	> 100 µM	> 100000 nM	> 100 µM	> 100000 nM	> 100 µM	> 100000 nM	> 100 µM	> 100000 nM	> 100 µM	> 100000 nM	> 100 µM	> 100000 nM	> 100 µM
O=C(O)c1cc(N/C=C2\C(=O)c3ccccc3OC2O)ccc1O (stereo not drawn)	30.8 µg/mL	57.7 µg/mL	15 µg/mL	71.8 µg/mL	30.6 µg/mL	77.9 µg/mL	18.9 µg/mL	59 µg/mL	28.8 µg/mL	71.6 µg/mL	20.6 µg/mL	61.8 µg/mL	23.3 µg/mL	79.2 µg/mL	21.1 µg/mL	82.8 µg/mL	31.8 µg/mL	113 µg/mL	4.77 µg/mL	36.9 µg/mL
O=C(/C=C/C=C/c1ccccc1)c1ccc(Nc2nc(Nc3ccccc3)nc(Nc3ccccc3)n2)cc1	45.8 µM	> 100 µM	> 100 µM	> 100 µM	2160 nM	> 100 µM	43.6 µM	> 100 µM	> 100000 nM	> 100 µM	627 nM	> 100 µM	> 100000 nM	> 100 µM	> 100000 nM	> 100 µM	46900 nM	> 100 µM	9450 nM	92.9 µM
CS(=O)(=O)N1CCN(Cc2cc3nc(-c4cccc5[nH]ncc45)nc(N4CCOCC4)c3s2)CC1	0.281 µM	2.46 µM	0.271 µM and 0.231 µM	> 100 µM	499 nM and 163 nM	> 100 µM	0.61 µM and 0.427 µM	> 100 µM	284 nM and 101 nM	> 100 µM	57.1 nM and 38.9 nM	0.425 µM and 0.301 µM	728 nM and 276 nM	> 100 µM	1760 nM and 1440 nM	> 100 µM	345 nM and 133 nM		2460 nM and 2020 nM	> 100 µM
O=C(O)CN(CC(=O)O)Cc1cc2c(cc1O)Oc1cc(O)c(CN(CC(=O)O)CC(=O)O)cc1C21OC(=O)c2ccccc21		> 100 µM		> 100 µM		> 100 µM		> 100 µM		> 100 µM		> 100 µM		> 100 µM		> 100 µM		> 100 µM		> 100 µM
CN(CCCCCl)P(=O)(OCc1ccc([N+](=O)[O-])o1)C(F)(F)c1ccc(CC(=O)N[C@@H](CC(=O)O)C(=O)N[C@@H](Cc2ccc(C(F)(F)P(=O)(OCc3ccc([N+](=O)[O-])o3)N(C)CCCCCl)cc2)C(N)=O)cc1 (stereo partly drawn)	> 100 µM	> 100 µM	18.8 µM	44.4 µM	41000 nM	> 100 µM	85.8 µM	> 100 µM	60400 nM	> 100 µM	45700 nM	> 100 µM	49100 nM	> 100 µM	> 100000 nM	> 100 µM	42400 nM	> 100 µM	22900 nM	49.9 µM
